In article PMC7357169, “Blinded, Multicenter Evaluation of Drug-induced Changes in Contractility Using Human-induced Pluripotent Stem Cell-derived Cardiomyocytes” (Toxicological Sciences, 2020):
“Also recorded” adds a separate entry of the source.

Tests used:
hiPSC-CMs = assay: CellOPTIQ voltage (FluoVolt) analysis, hiPSC-CMs; type: cell-based, human
Procedure: hiPSC-CMs in 96-well plate were transiently loaded in 50 µl/well of SFM containing FluoVolt (1:200 part B, 1:2000 part A; Life Tech, F10488) for 20 min at 37°C and 5% CO2. After incubation, the medium was replaced with 200 μl/well of SFM. Plates were then incubated at 37°C and 5% CO2 for 15 min before recording, which were made using a ×40 (NAO.6) objective at 10 KHz. […] Electrophysiology data were analyzed using CellOPTIQ proprietary software of Clyde Biosciences and were normalized to a maximum amplitude of 1 and minimum of 0 to standardize height for comparison of traces created in OriginPro (OriginLab version 7.5). Contractility data were analyzed based on pixel displacement using an ImageJ plug-in. […]
Action potential duration (APD30, APD90) and triangulation (APD90–APD30) were calculated from voltage waveforms to determine whether electrophysiology was altered, including the appearance of arrhythmias. For Ca^2+ handling, amplitude, time to peak, and decay time were assessed, whereas similar parameters (contraction amplitude [CA], contraction time [CT], and relaxation time [RT]) were derived for contraction (Supplementary Figure 2). […]

ERC18 hiPSC-CM EHTs [1] = conditions: EHT:ERC
Procedure: For long-term contractility analysis of sunitinib, hiPSC-CM EHTs were equilibrated to regular cell culture medium without serum (DMEM, Biochrom F0415; penicillin/streptomycin 1% [volume/volume], Gibco 15140; aprotinin 5 µM, Sigma-Aldrich A1153; insulin 1.7 µM, Sigma-Aldrich I9278; glutamine 2000 µM, Gibco 25030-081; triiodothyronine 0.77 nM, European Commission-Joint Research Center IRMM-469; hydrocortisone 137 µM: Sigma-Aldrich H0888). Medium change, drug addition and video-optical contractility analysis was performed daily and contraction data was normalized to time control.
The EHT:ERC platform-cell combination was exposed to 100 µM doxorubicin (C) or 1 µM sunitinib (D) for up to 17.5 hr (C) or up to 8 days (D). CA is shown normalized to time controls.

cardiac contractility = conditions: cited from earlier work; for EC50: read-out: Expected effect on contractility in isolated cardiomyocytes/heart muscles, EC50
heart = tested on: heart; design: method as in Refs column of Supplementary Table 1; conditions: Refs of Supplementary Table 1; cited from earlier work
[2] = cited from earlier work; for FTPC: free therapeutic plasma concentration, Refs of Supplementary Table 1; for FPTC (free plasma therapeutic concentration): ref Supplementary Table 1
R-PAT hiPSC-CMs [3] = assay: CO:R-PAT contractility after 24 h exposure
From the text: We asked whether longer term exposure would affect contractility (Supplementary Figure 7).
Prolonged exposure detects NIs in 2D and 3D cultures of hiPSC-CMs. […] CA is shown normalized to time controls.

R-PAT hiPSC-CMs [4] = assay: CellOPTIQ (CO) contractility, R-PAT hiPSC-CM 2D monolayers; type: cell-based, human; conditions: mean maximum measurable percentage change relative to baseline, at concentration of column Conc μM or cell superscript
Procedure: Manufacturer instructions were followed for the commercial hiPSC lines. […] The same plates were used for R-PAT hiPSC-CMs, which were seeded at 40 000 cells/well and maintained until days 20 and 21 of differentiation before use.
hiPSC-CMs in 96-well plate were transiently loaded in 50 µl/well of SFM containing FluoVolt (1:200 part B, 1:2000 part A; Life Tech, F10488) for 20 min at 37°C and 5% CO2. After incubation, the medium was replaced with 200 μl/well of SFM. Plates were then incubated at 37°C and 5% CO2 for 15 min before recording, which were made using a ×40 (NAO.6) objective at 10 KHz. […] Baselines and drug addition were as described for the TTM system. Electrophysiology data were analyzed using CellOPTIQ proprietary software of Clyde Biosciences and were normalized to a maximum amplitude of 1 and minimum of 0 to standardize height for comparison of traces created in OriginPro (OriginLab version 7.5). Contractility data were analyzed based on pixel displacement using an ImageJ plug-in. This plug-in uses a sum of absolute differences algorithm.

R-PAT hiPSC-CM EHTs = assay: Engineered heart tissue (EHT) contractility, R-PAT hiPSC-CMs; type: cell-based, human
From the text: (§1) To generate EHTs, in-house hiPSC lines, R-PAT, and ERC18, were differentiated using 2D-monolayer- (R-PAT) or 3D-embryoid body- (ERC18) protocol and fabricated as recently described ([Breckwoldt et al., 2017]; [Mosqueira et al., 2018]). In brief, casting molds were generated in 24-well plates with 2% agarose (Invitrogen, 15510-019) and Polytetrafluorethylene (PTFE) spacers (EHT Technologies, C0002). PDMS racks (EHT Technologies, C0001) were placed in the 24-well plates so that pairs of PDMS posts reached into each agarose casting mold. A reconstitution mix was prepared consisting of: 1 × 10^6 hiPSC-CM; 81.9 µl cardiomyocyte medium; 10 µl Matrigel basement membrane matrix (BD 354234); 5.5 µl 2 × DMEM; 0.1 µl Y-27632 (10 mM; Biorbyt orb60104); 2.5 µl bovine fibrinogen (5 mg/ml; Sigma F4753). Reconstitution mix (97 µl) was mixed with prealiquoted 3 µl thrombin (100 U/ml; Biopur BP11-10-1104) and pipetted into the agarose casting mold. GCAMP6f-lentiviral particles (multiplicity of infection: 0.3, functional titer) were included in the EHT reconstitution mix for Ca^2+ transient analysis. EHTs started to beat coherently after 10–14 days and were analyzed for contraction and Ca^2+ transient at ≥ 20 days.
(§2) EHTs were transferred from culture medium into preequilibrated (37°C, 40% O2, 7% CO2), modified Tyrode’s solution (in mM, 120 NaCl; 22.6 NaHCO3; 5.4 KCl; 5 glucose; 1 MgCl2; 0.4 NaH2PO4; 0.6–1 CaCl2; 0.05 Na2EDTA; 25 HEPES) for R-PAT and into DMEM (Gibco 21068028; in mM, 110 NaCl; 44 NaHCO3; 5 KCl; 25 glucose; 0.8 MgSO4; 0.9 NaH2PO4, 0.6–1 CaCl2; 25 HEPES, and vitamins and amino acids) for ERC18 EHTs 40 min before analysis to equilibrate to the testing medium. After equilibration, the cumulative concentration response curve was started with baseline recording in preequilibrated medium with Ca^2+ concentration of 0.6–1 mM.
(§3) Contractility analysis was via automated video-optical contractility analysis was performed in 24-well cell culture plates (Nunc, 122475) ([Breckwoldt et al., 2017]). Video files of EHT contractions were analyzed by automated EHT figure recognition software (EHT Technologies, A0001). Top and bottom ends of EHT contour were identified and followed during the course of recording. Force was calculated based on shortening during contraction, elastic propensity, and geometry of PDMS posts.
(§4) Data were normalized to a pool of time-matched controls (contractility analysis, ERC18: n = 22 EHTs/7.0 experiments; R-PAT: 16 EHTs/5.0 experiments; combined contractility- and Ca^2+ transient-analysis: 21 EHTs/8.0 experiments) used for all contractility/combined contractility- and Ca^2+ transient-measurements. Data are plotted as relative change to the mean baseline, normalized to pool time control. Statistical significance was evaluated by GraphPad Software, 1-way ANOVA with Dunnett’s multiple comparisons test versus baseline.

ERC18 hiPSC-CM EHTs [5] = assay: Engineered heart tissue (EHT) contractility, ERC18 hiPSC-CMs; type: cell-based, human; conditions: for changes in CA on the EHT platform: one range given for three NE drugs incorrectly predicted as PIs, EHT: ERC18 per Table 1
From the text: as §1, §2, §3, §4

[6] = isolated cardiomyocytes/heart muscles, Refs of Supplementary Table 1
[7] = EHT: R-PAT, mean maximum measurable percentage change relative to baseline, at concentration of column Conc μM or cell superscript
[8] = EHT: ERC18, mean maximum measurable percentage change relative to baseline, at concentration of column Conc μM or cell superscript

Row | Compound | electrophysiology after 30 min exposure (hiPSC-CMs) | Expected effect on contractility in isolated cardiomyocytes/heart muscles (cardiac contractility; [6]) | Expected cardiac effects in vivo (heart) | FTPC [2] [µM] | FPTC (free plasma therapeutic concentration) [2] [µM] | effect of exposure to the highest concentration for 24 h (R-PAT hiPSC-CMs [3]) | EC50 (cardiac contractility; [6]) [µM] | changes in CA on the EHT platform (ERC18 hiPSC-CM EHTs [5]) | further results
1 | COc1cccc2c1C(=O)c1c(O)c3c(c(O)c1C2=O)C[C@@](O)(C(=O)CO)C[C@@H]3O[C@H]1C[C@H](N)[C@H](O)[C@H](C)O1 [Doxorubicin] | altered electrophysiology; also recorded: changes in electrophysiology | PI+NCl and reduced post-rest potentiation at 30 µM (GP), but strong NI at 1000 µM (GP, rat); rate-dependent | NI, time course of cardiotox dose-dependent | 1 to 2 | 1 to 2 | loss of contraction and cell death |  |  | time after which EHT contraction ceased (ERC18 hiPSC-CM EHTs [1]; 100 µM doxorubicin): 17.5 h; reported inotropic effects (cardiac contractility; ref Kim et al., 1980, Vanboxtel et al., 1978, Wang and Korth, 1995): transient positive inotropy is followed by robust negative inotropy at higher concentrations; inotropy trend with 24 h treatment (R-PAT hiPSC-CMs [3]; 1 to 30 µM, increased CA, decreased CT): trend of positive inotropy
2 | C[C@H](N[C@@H](CCc1ccccc1)C(=O)O)C(=O)N1CCC[C@H]1C(=O)O [Enalaprilat] |  | None | None | 0.12 | 0.12 |  |  |  | CA (contraction amplitude) (R-PAT hiPSC-CMs [4]): +54%; CT (contraction time) (R-PAT hiPSC-CMs [4]): +20 ^10 µM %; RT (relaxation time) (R-PAT hiPSC-CMs [4]): +34%; CA (contraction amplitude) (R-PAT hiPSC-CM EHTs; [7]): +33%; CT (contraction time) (R-PAT hiPSC-CM EHTs; [7]): +5 ^1 µM %; RT (relaxation time) (R-PAT hiPSC-CM EHTs; [7]): −14%; changes in CA on the EHT platform (R-PAT hiPSC-CM EHTs; one range given for three NE drugs incorrectly predicted as PIs, EHT: R-PAT per Table 1): 19%–33; CA (contraction amplitude) (ERC18 hiPSC-CM EHTs [5]; [8]): +2 ^10 µM %; CT (contraction time) (ERC18 hiPSC-CM EHTs [5]; [8]): −3%; RT (relaxation time) (ERC18 hiPSC-CM EHTs [5]; [8]): −4%; inotropic effect via bradykinin B1 receptor activation (cardiac contractility; ACE inhibitors, ref Ignjatovic et al., 2002): positive inotropic effect
3 | COC(=O)N1CCN(Cc2cccc(NC(=O)Nc3ccc(C)nc3)c2F)CC1 [Omecamtiv mecarbil] |  | PI, NCl, NL, diastolic shortening (dog myocytes) | PI, prolonged syst. ejection time, small decrease in heart rate | 0.05 to 0.42 |  |  | 1 |  | increased CT (R-PAT hiPSC-CM EHTs; hiPSC-CMs configured as 3D EHTs, blinded phase, without convincing evidence for increased CA): approximately +40%
4 | CC[C@H](C)C(=O)O[C@H]1C[C@H](O)C=C2C=C[C@H](C)[C@H](CC[C@@H](O)C[C@@H](O)CC(=O)O)[C@H]21 [Pravastatin] |  | None | None | 0.018 | 0.018 |  |  | 19%–33 | 
5 | CCN(CC)CCNC(=O)c1c(C)[nH]c(/C=C2\C(=O)Nc3ccc(F)cc32)c1C [Sunitinib] | altered electrophysiology |  | NI, NC at high doses, chronic cardiotox | 0.003 | 0.003 | loss of contraction and cell death |  |  | CA over a 7-day period (ERC18 hiPSC-CM EHTs [1]; 1 µM sunitinib, normalized to time controls): decline in CA; IC50 (cardiac contractility; negative inotropy, isolated cardiomyocytes/heart muscles, Refs of Supplementary Table 1, read-out: Expected effect on contractility in isolated cardiomyocytes/heart muscles, IC50): 10 µM
6 | CCCCNC(=O)NS(=O)(=O)c1ccc(C)cc1 [Tolbutamide] |  | None (canine CM) or small PI (rabbit atria, rat heart) | None or PI (dogs, men) |  |  |  | ~30 | 19%–33 | 
